Experimental data from US4333938A, “Imino derivatives of 5-aminobenzodioxole-1,3 which are useful as medicaments” (Laboratoires Sarget, priority 1979, dated 1982).
Where “and” joins values, the source holds several entries; their conditions need not be identical. Equal entries are not always repeated.

Tests used:
[1] = oral toxicity (mortality) in the mouse; conditions: in vivo, Swiss mice
Method: (§1) The percentages of mortality produced by the compounds of this invention when administered orally to Swiss mice are shown in Table 1. The animals, free from specific pathogenic organisms were housed in an air conditioned room for 24 to 48 hours before the start of the experiment. They were separated into groups of 5 males and 5 females. The materials were administered to animals which had been fasted for 24 hours by means of a gastric tube in suspension in a 6% thickened julep using a volume equivalent to 0.1 ml per 10 g of body weight. […] They remained under observation for two weeks before being sacrificed and autopsied.

Wistar rat = experiment: oral toxicity (mortality) in the Wistar rat; format: in vivo; conditions: 2000 mg/kg
Method: as §1
The toxicities of the compounds of Examples 2 and 3 were determined in the Wistar rat. The protocol which was followed was the same as that described for the mice, except that the compounds were administered in a volume equivalent to 0.5 ml per 100 g of body weight of rat. […] The product of Example 3 produced no mortality at 2000 mg/kg and 20% mortality at 3000 mg/kg.

phenylbenzoquinone (PBQ) = experiment: analgesic activity, phenylbenzoquinone (PBQ) challenge; format: in vivo; conditions: male Swiss mouse, oral
Method: The analgesic activity was determined in the male Swiss mouse using phenylbenzoquinone (PBQ) as the challenging agent (variation of the method of Siegmund et al, Proc. Soc. Exp. Biol. Med. […], 95, 729-31). […] The ED50 was determined by the method of Lichfield and Wilcoxon.

carageenan-induced edema = experiment: inhibition of carrageenan-induced edema; format: in vivo, male Wistar rat; conditions: oral
Method: The inflammation is produced in the male Wistar rat by injection of 0.1 ml of a 0.5% suspension of carageenan in physiological serum, into the muscular fascia of the metatarsal region of the hind foot of the animal. The test substance is administered orally at the same time as the carageenan or 30 or 60 min before carageenan. The edema is measured by plethysmometry three hours after the adminstration of the carrageenan.

[2] = system: edema produced by serotonin; experiment: inhibition of serotonin-induced edema; format: in vivo, Wistar rat; conditions: oral, 30 minutes before serotonin
Method: In the Wistar rat inflammation is induced by intrapedal injection of 0.1 ml of a 0.02% solution of serotonin in physiological serum. The test substance is administered orally 30 minutes before the serotonin and the edema is measured by plethysmometry one hour after its release.

[3] = system: carrageenan-induced granulomas; experiment: activity on carrageenan-induced granulomas; format: in vivo, Male Wistar rats
Method: Male Wistar rats weighing 130 to 150 grams were given a subcutaneous injection in the central part of the skin of the back of 0.5 ml of an aqueous suspension of carrageenan. Two doses of the test substance are administered, one 30 minutes before and the other 6 hours after carrageenan. At the end of 24 hours the rats were sacrificed and the granulomas were removed and weighed before and after drying for 24 hours at 50° C. The difference in weight of the granulomas wet and dry represents the exudate
These AD50 are respectively 175(142-215) and 175(150-205) mg/kg.

cotton pellet granulomas = experiment: inhibition of cotton pellet granulomas; format: in vivo, male Sprague-Dawley rats; conditions: oral, daily for 10 days, dose 150
Method: Two cotton pellets weighing 70 mg were implanted under the back skin of male Sprague-Dawley rats anesthetized with ether. Starting the next day, the compound was administered orally daily for 10 days. The rats were sacrificed and the pellets were removed and weighed before and after drying at 50° C. for 24 hours. The weights used were those obtained after deduction of the weight of the implants. The average of the quantities so calculated was determined for each group and compared to the averages of the control group.

stomachs = experiment: ulcerogenic activity; format: in vivo, female Wistar rat; conditions: 150 mg/kg daily
Method: The ulcerogenic activity was determined in the female Wistar rat using a variation of the procedure described by J. M. Lwoff, J. Pharmacol. 1971, 3, 1, 81-3. The test substance was administered daily for 3 days to the animals maintained on a aqueous diet. The stomachs were removed after 1, 2, and 3 days of treatment and the ulcerations were classified from 0 to 4. The ulceration index is calculated for each group of animals as the product (average of the classes x the percentage of animals afflicted), while distinguishing acute ulcerations from ulcers which were in the process of healing.

solubility in water = format: physicochemical

For C(=Nc1ccc2c(c1)OCO2)c1cccnc1 [Example 3, N-(3-pyridylidene)-5-aminobenzodioxole-1,3], which mortality at 336 h ([1]; 500 mg/kg) is on record?
The mortality at 336 h was 0%.

What about the mortality at 336 h ([1]; 1000 mg/kg) of the same molecule?
Its mortality at 336 h is 10%.

What about the mortality at 336 h ([1]; 2000 mg/kg) of the same molecule?
The mortality at 336 h was 100%.

And the “mortality (in words)” value (Wistar rat)?
Its value is “no mortality”.

And the “% analgesic activity” value (phenylbenzoquinone (PBQ); 50 mg/kg)?
The value was 23%.

What about the “% analgesic activity” value (phenylbenzoquinone (PBQ); 100 mg/kg) of the same molecule?
The value was 44%.

And the “% analgesic activity” value (phenylbenzoquinone (PBQ); 200 mg/kg)?
The value was 65%.

And the “% analgesic activity” value (phenylbenzoquinone (PBQ); 300 mg/kg)?
The value was 92%.

What about the ED50 (phenylbenzoquinone (PBQ); method of Lichfield and Wilcoxon) of the same molecule?
The ED50 was 110 mg/kg.

What about the “% inhibiting activity on carrageenan-induced edema” value (“% inhibiting activity” below) (carageenan-induced edema; To - 30 (30 min before carrageenan), 25 mg/kg) of the same molecule?
The value was 34%.

And the “% inhibiting activity” value (carageenan-induced edema; To - 30, 50 mg/kg)?
The value was 41% and 38%.

And the “% inhibiting activity” value (carageenan-induced edema; To - 30, 75 mg/kg)?
Its value is 44%.

What about the “% inhibiting activity” value (carageenan-induced edema; To - 30, 100 mg/kg) of the same molecule?
The value was 50% and 41%.

And the “% inhibiting activity” value (carageenan-induced edema; To - 30, 150 mg/kg)?
Its value is 53%.

What about the “% inhibiting activity” value (carageenan-induced edema; To - 30, 200 mg/kg) of the same molecule?
The value was 66%.

What about the “% inhibiting activity” value (carageenan-induced edema; To - 30, 400 mg/kg) of the same molecule?
The value was 67% and 72%.

What about the “% inhibiting activity” value (carageenan-induced edema; To - 60 (60 min before carrageenan), 25 mg/kg) of the same molecule?
Its value is 25%.

What about the “% inhibiting activity” value (carageenan-induced edema; To - 60, 50 mg/kg) of the same molecule?
Its value is 42%.

And the “% inhibiting activity” value (carageenan-induced edema; To - 60, 75 mg/kg)?
Its value is 40%.

What about the “% inhibiting activity” value (carageenan-induced edema; To - 60, 100 mg/kg) of the same molecule?
The value was 39%.

What about the “% inhibiting activity” value (carageenan-induced edema; To - 60, 200 mg/kg) of the same molecule?
The value was 58%.

What about the “% inhibiting activity” value (carageenan-induced edema; To - 60, 400 mg/kg) of the same molecule?
Its value is 69%.

And the “% inhibiting activity” value (carageenan-induced edema; at To, 100 mg/kg)?
Its value is 57% and 29%.

And the “% inhibiting activity” value (carageenan-induced edema; at To, 200 mg/kg)?
The value was 28% and 36%.

And the “% inhibiting activity” value (carageenan-induced edema; at To, 400 mg/kg)?
Its value is 55% and 39%.

And the “% inhibitory activity on serotonin edema” value ([2]; 100 mg/kg)?
Its value is 27%.

What about the “% inhibitory activity on serotonin edema” value ([2]; 200 mg/kg) of the same molecule?
Its value is 21%.

And the “% inhibitory activity on serotonin edema” value ([2]; 400 mg/kg)?
The value was 26%.

What about the “Exudate, % activity” value ([3]; 100 mg/kg administered twice) of the same molecule?
The value was 15% and 25%.

What about the “Exudate, % animals 30% protected” value ([3]; 100 mg/kg administered twice) of the same molecule?
The value was 25% and 37%.

What about the “Weight of dry granuloma, % activity” value ([3]; 100 mg/kg administered twice) of the same molecule?
The value was 12% and 22%.

What about the “Weight of wet granuloma, % activity” value ([3]; 100 mg/kg administered twice) of the same molecule?
The value was 15% and 25%.

What about the “Weight of wet granuloma, % animals 30% protected” value ([3]; 100 mg/kg administered twice) of the same molecule?
Its value is 25% and 37%.

And the “Exudate, % activity” value ([3]; 200 mg/kg administered twice)?
Its value is 27% and 34% and 38%.

What about the “Weight of dry granuloma, % activity” value ([3]; 200 mg/kg administered twice) of the same molecule?
Its value is 27% and 32% and 33%.

What about the “Weight of wet granuloma, % activity” value ([3]; 200 mg/kg administered twice) of the same molecule?
Its value is 27% and 33% and 34%.

And the “Exudate, % activity” value ([3]; 250 mg/kg administered twice)?
The value was 36%.

What about the “Exudate, % animals 30% protected” value ([3]; 250 mg/kg administered twice) of the same molecule?
Its value is 75%.

And the “Weight of dry granuloma, % activity” value ([3]; 250 mg/kg administered twice)?
The value was 33%.

And the “Weight of dry granuloma, % animals 30% protected” value ([3]; 250 mg/kg administered twice)?
The value was 62%.

And the “Weight of wet granuloma, % activity” value ([3]; 250 mg/kg administered twice)?
The value was 36%.

What about the “Weight of wet granuloma, % animals 30% protected” value ([3]; 250 mg/kg administered twice) of the same molecule?
The value was 75%.

And the “Exudate, % activity” value ([3]; 300 mg/kg administered twice)?
Its value is 35% and 43%.

What about the “Exudate, % animals 30% protected” value ([3]; 300 mg/kg administered twice) of the same molecule?
The value was 87% and 75%.

What about the “Weight of dry granuloma, % activity” value ([3]; 300 mg/kg administered twice) of the same molecule?
The value was 37% and 41%.

And the “Weight of dry granuloma, % animals 30% protected” value ([3]; 300 mg/kg administered twice)?
The value was 62% and 75%.

What about the “Weight of wet granuloma, % activity” value ([3]; 300 mg/kg administered twice) of the same molecule?
Its value is 35% and 43%.

What about the “Weight of wet granuloma, % animals 30% protected” value ([3]; 300 mg/kg administered twice) of the same molecule?
The value was 87% and 75%.

What about the ED50 ([3]; Rattus norvegicus, 24 h, dose which protects 50% of the animals to the extent of 30% with respect to wet weight of the granuloma, read-out: AD50 (the source's name)) of the same molecule?
Its ED50 is 175 mg/kg.

What about the “% inhibition with respect to dry pellets” value (cotton pellet granulomas) of the same molecule?
The value was 5%.

And the “% inhibition with respect to wet pellets” value (cotton pellet granulomas)?
Its value is 0%.

And the “Ulceration Index, acute” value (stomachs; Day 1)?
The value was 6.

What about the “Ulceration Index, healing” value (stomachs; Day 1) of the same molecule?
The value was 0.

And the “Ulceration Index, acute” value (stomachs; Day 2)?
The value was 20.

And the “Ulceration Index, healing” value (stomachs; Day 2)?
Its value is 6.

And the “Ulceration Index, acute” value (stomachs; Day 3)?
Its value is 33.

What about the “Ulceration Index, healing” value (stomachs; Day 3) of the same molecule?
The value was 12.

And the solubility in water (solubility in water)?
The solubility in water was “insoluble in water”.
